This is an account of results in ChEMBL document CHEMBL3877337, “Crystal Structures of ERAP2 Complexed with Inhibitors Reveal Pharmacophore Requirements for Optimizing Inhibitor Potency” (ACS Med Chem Lett, 2017).

A word on the IC50: it is the midpoint of a concentration-inhibition curve.

Structures are written as SMILES.

The assay addresses Endoplasmic reticulum aminopeptidase 2 (Homo sapiens, UniProt Q6P179). Briefly: Inhibition of recombinant ERAP2 (unknown origin) expressed in baculovirus infected insect cells using L-arginine-7-amido-4-methylcoumarine as substrate by spectrofluorimetric assay.

Chain of Endoplasmic reticulum aminopeptidase 2 (Q6P179 whole entry): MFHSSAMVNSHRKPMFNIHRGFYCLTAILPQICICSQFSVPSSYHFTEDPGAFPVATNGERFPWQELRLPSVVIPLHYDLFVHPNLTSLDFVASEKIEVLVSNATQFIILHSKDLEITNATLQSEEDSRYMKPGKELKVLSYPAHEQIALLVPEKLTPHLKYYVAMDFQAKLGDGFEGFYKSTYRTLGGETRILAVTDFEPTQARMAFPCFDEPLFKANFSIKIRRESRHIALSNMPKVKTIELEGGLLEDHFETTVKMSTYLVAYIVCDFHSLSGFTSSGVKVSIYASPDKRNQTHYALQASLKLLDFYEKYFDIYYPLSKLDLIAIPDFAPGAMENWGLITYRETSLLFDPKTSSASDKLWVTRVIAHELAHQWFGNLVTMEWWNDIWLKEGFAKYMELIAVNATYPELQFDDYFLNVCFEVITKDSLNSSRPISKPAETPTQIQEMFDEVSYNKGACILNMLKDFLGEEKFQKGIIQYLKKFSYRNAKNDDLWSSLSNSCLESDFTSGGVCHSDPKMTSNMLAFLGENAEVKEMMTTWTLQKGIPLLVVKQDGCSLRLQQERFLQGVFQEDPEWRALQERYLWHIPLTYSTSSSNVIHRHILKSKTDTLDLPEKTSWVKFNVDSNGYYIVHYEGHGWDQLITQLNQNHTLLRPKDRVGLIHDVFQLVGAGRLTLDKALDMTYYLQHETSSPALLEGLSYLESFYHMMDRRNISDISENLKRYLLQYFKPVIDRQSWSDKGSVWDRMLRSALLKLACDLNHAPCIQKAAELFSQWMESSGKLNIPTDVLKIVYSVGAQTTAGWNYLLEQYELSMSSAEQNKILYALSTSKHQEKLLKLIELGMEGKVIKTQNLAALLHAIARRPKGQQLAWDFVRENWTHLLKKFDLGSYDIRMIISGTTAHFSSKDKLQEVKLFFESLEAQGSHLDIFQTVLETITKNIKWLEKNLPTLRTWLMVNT

Regarding `O=C(NO)C(Cc1ccc(F)cc1)C(=O)NCc1ccccc1` (stereo unspecified), the IC50 was greater than 100 µM.
